From the supplement of paper PMC10599287

Assays:
[1] = compound: CCNC(=O)C#Cc1ccc2c(C(=Nc3ccc(CN(C)C)cc3)c3ccccc3)c(O)[nH]c2c1; assay: absolute IC70 (antiproliferative, propidium iodide); higher = less potent; details: exposure time: 4 days
Description: (§1)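 Modified propidium iodide survival/proliferation assay in 294 human tumor cell lines (2D monolayer for solid tumors, suspension for hematologic lines) after 4 days of continuous exposure to 10 concentrations in half-log steps from 0.001 to 30 µM. Absolute IC70 was fitted by four-parameter nonlinear regression of T/C × 100 (%) values; 30 µM is the top dose.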

[2] = compound: O=C(NOCCO)c1ccc2cncn2c1Nc1ccc(I)cc1F [GDC-0623]; assay: as above; details: exposure time: 4 days
Description: as §1

Test System	absolute IC70 [1]	absolute IC70 [2]
HNXF_1853	641 nM	451 nM
LOU-NH91	2140 nM	> 30000 nM
NALM-33	7 nM	> 30000 nM
HCC1937	475 nM	> 30000 nM
MEXF_394	42 nM	4 nM
KYSE-520	525 nM	158 nM
PL-21	338 nM	365 nM
H69AR	688 nM	> 30000 nM
22RV1	616 nM	> 30000 nM
RD-ES	77 nM	> 30000 nM
RCH-ACV	6 nM	> 30000 nM
OE21	2210 nM	> 30000 nM
HNXF_1859	116 nM	117 nM
U-266	1700 nM	> 30000 nM
MIA-PaCa-2	103 nM	5 nM
SNU-449	3200 nM	2220 nM
MKN45	489 nM	79 nM
MKN1	289 nM	> 30000 nM
SR	13 nM	> 30000 nM
SN12C	665 nM	2960 nM
HPAC	120 nM	> 30000 nM
NUGC-4	329 nM	8 nM
KM20L2	186 nM	51.8 nM
MOLP-2	3650 nM	> 30000 nM

Test System	absolute IC70 [1]	absolute IC70 [2]
MFE-319	370 nM	5170 nM
MEXF_520	99 nM	5400 nM
RH-30	794 nM	24600 nM
SXFS_1301	3850 nM	> 30000 nM
DoTc2-4510	260 nM	> 30000 nM
PAXF_546	12200 nM	> 30000 nM
A498	4340 nM	> 30000 nM
SD1	4 nM	> 30000 nM
MAXF_401	28 nM	730 nM
NCI-H345	11800 nM	> 30000 nM
MEXF_622	227 nM	40 nM
HCC33	2050 nM	> 30000 nM
LXFA_289	1790 nM	> 30000 nM
LXFL_1121	743 nM	> 30000 nM
T24	353 nM	46 nM
786-O	1170 nM	> 30000 nM
MEXF_1341	482 nM	26 nM
U-2197	2770 nM	> 30000 nM
Hep-G2	55 nM	16500 nM
COLO-205	14 nM	17 nM
CCRF-CEM-VCR	73 nM	> 30000 nM
ACHN	765 nM	> 30000 nM
RH-41	606 nM	> 30000 nM
A172	252 nM	1590 nM

Test System	absolute IC70 [1]	absolute IC70 [2]
NCI-H1975	409 nM	> 30000 nM
KM-H2	2770 nM	> 30000 nM
EM-2	277 nM	192 nM
KG-1	33 nM	25100 nM
M059K	1150 nM	> 30000 nM
DU-145	569 nM	1240 nM
JURL-MK1	149 nM	11 nM
OCI-AML3	6 nM	< 1 nM
MDA-MB-453	2480 nM	> 30000 nM
DND-39	72 nM	> 30000 nM
SXFO_678	87 nM	> 30000 nM
LXFA_623	960 nM	1010 nM
COLO-741	524 nM	38.9 nM
OVXF_899	457 nM	14700 nM
NCI-H69	1340 nM	> 30000 nM
NCI-H727	325 nM	23 nM
BXF_1036	115 nM	8 nM
DU-4475	9 nM	4 nM
LXFA_677	269 nM	168 nM
HH	1370 nM	> 30000 nM
TE671	1360 nM	> 30000 nM
MINO	10 nM	> 30000 nM
RXF_486	816 nM	239 nM
